Measurements as given in ChEMBL document CHEMBL2413072, “Synthesis and in vitro anticancer studies of novel C-2 arylidene congeners of lantadenes” (2013).

Legend:
Format in all cases: functional
SW-620 = test: Growth inhibition of human SW620 cells by sulforhodamine B assay
NCI-H522 [1] = test: Growth inhibition of human NCI-H522 cells by sulforhodamine B assay
HOP-92 [2] = test: Growth inhibition of human HOP92 cells by sulforhodamine B assay
UACC-257 = test: Growth inhibition of human UACC257 cells assessed as cell growth at 10^-8 M by sulforhodamine B assay; settings: read-out: Activity
SK-MEL-28 = test: Growth inhibition of human SK-MEL-28 cells assessed as cell growth at 10^-8 M by sulforhodamine B assay; settings: read-out: Activity
SF-539 [3] = test: Growth inhibition of human SF539 cells assessed as cell growth at 10^-8 M by sulforhodamine B assay; settings: read-out: Activity
KM12 = test: Growth inhibition of human KM12 cells assessed as cell growth at 10^-8 M by sulforhodamine B assay; settings: read-out: Activity
HCT-116 = test: Growth inhibition of human HCT116 cells assessed as cell growth at 10^-8 M by sulforhodamine B assay; settings: read-out: Activity
NCI-H522 [4] = test: Growth inhibition of human NCI-H522 cells assessed as cell growth at 10^-8 M by sulforhodamine B assay; settings: read-out: Activity
UO-31 [5] = test: Growth inhibition of human UO31 cells by sulforhodamine B assay
TK-10 = test: Growth inhibition of human TK10 cells by sulforhodamine B assay
A498 = test: Growth inhibition of human A498 cells by sulforhodamine B assay
OVCAR-5 = test: Growth inhibition of human OVCAR5 cells by sulforhodamine B assay
LOX IMVI = test: Growth inhibition of human LOXIMVI cells by sulforhodamine B assay
U-251 = test: Growth inhibition of human U251 cells by sulforhodamine B assay
SF-295 = test: Growth inhibition of human SF295 cells by sulforhodamine B assay
MDA-MB-231 = test: Growth inhibition of human MDA-MB-231 cells assessed as cell growth at 10^-4 M by sulforhodamine B assay; settings: read-out: Activity
MCF7 = test: Growth inhibition of human MCF7 cells assessed as cell growth at 10^-4 M by sulforhodamine B assay; settings: read-out: Activity
DU-145 = test: Growth inhibition of human DU145 cells assessed as cell growth at 10^-4 M by sulforhodamine B assay; settings: read-out: Activity
ACHN = test: Growth inhibition of human ACHN cells assessed as cell growth at 10^-4 M by sulforhodamine B assay; settings: read-out: Activity
OVCAR-3 [6] = test: Growth inhibition of human OVCAR3 cells assessed as cell growth at 10^-4 M by sulforhodamine B assay; settings: read-out: Activity
UACC-62 = test: Growth inhibition of human UACC62 cells assessed as cell growth at 10^-4 M by sulforhodamine B assay; settings: read-out: Activity
M14 = test: Growth inhibition of human M14 cells assessed as cell growth at 10^-4 M by sulforhodamine B assay; settings: read-out: Activity
NCI-H460 [7] = test: Growth inhibition of human NCI-H460 cells assessed as cell growth at 10^-4 M by sulforhodamine B assay; settings: read-out: Activity
MDA-MB-468 [8] = test: Growth inhibition of human MDA-MB-468 cells assessed as cell growth at 10^-6 M by sulforhodamine B assay; settings: read-out: Activity
PC-3 = test: Growth inhibition of human PC3 cells assessed as cell growth at 10^-6 M by sulforhodamine B assay; settings: read-out: Activity
SF-539 [9] = test: Growth inhibition of human SF539 cells assessed as cell growth at 10^-6 M by sulforhodamine B assay; settings: read-out: Activity
A549 = test: Growth inhibition of human A549/ATCC cells assessed as cell growth at 10^-6 M by sulforhodamine B assay; settings: read-out: Activity
UO-31 [10] = test: Growth inhibition of human UO31 cells assessed as cell growth at 10^-7 M by sulforhodamine B assay; settings: read-out: Activity
786-0 = test: Growth inhibition of human 786-0 cells assessed as cell growth at 10^-7 M by sulforhodamine B assay; settings: read-out: Activity
OVCAR-3 [11] = test: Growth inhibition of human OVCAR3 cells assessed as cell growth at 10^-7 M by sulforhodamine B assay; settings: read-out: Activity
SK-MEL-2 = test: Growth inhibition of human SK-MEL-2 cells assessed as cell growth at 10^-7 M by sulforhodamine B assay; settings: read-out: Activity
HT-29 = test: Growth inhibition of human HT-29 cells assessed as cell growth at 10^-7 M by sulforhodamine B assay; settings: read-out: Activity
NCI-H460 [12] = test: Growth inhibition of human NCI-H460 cells assessed as cell growth at 10^-7 M by sulforhodamine B assay; settings: read-out: Activity
HOP-92 [13] = test: Growth inhibition of human HOP92 cells assessed as cell growth at 10^-7 M by sulforhodamine B assay; settings: read-out: Activity
MDA-MB-468 [14] = test: Growth inhibition of human MDA-MB-468 cells assessed as cell growth at 10^-8 M by sulforhodamine B assay; settings: read-out: Activity
BT-549 = test: Growth inhibition of human BT549 cells assessed as cell growth at 10^-8 M by sulforhodamine B assay; settings: read-out: Activity
CAKI-1 = test: Growth inhibition of human CAKI-1 cells assessed as cell growth at 10^-8 M by sulforhodamine B assay; settings: read-out: Activity
[15] = read-out: LC50 (the source's name)
[16] = read-out: pLC50 (the source's name) (converted)

## CC1(C)C[C@@H](O)[C@]2(C(=O)O)CC[C@]3(C)C(=CC[C@@H]4[C@@]5(C)C/C(=C\C=C\c6ccccc6)C(=O)C(C)(C)[C@@H]5CC[C@]43C)[C@@H]2C1
SW-620; read-out: GI50
  GI50: 3.39 µM
SW-620; [15]
  CC50: 78.8 µM
SW-620; read-out: TGI
  TGI: 15.4 µM
SW-620; read-out: pGI50 (converted)
  GI50: 3.39 µM
SW-620; [16]
  CC50: 79.4 µM
SW-620; read-out: pTGI (converted)
  TGI: 15.5 µM
NCI-H522 [1]; read-out: GI50
  GI50: 2.46 µM
NCI-H522 [1]; [15]
  CC50: 29.4 µM
NCI-H522 [1]; read-out: TGI
  TGI: 6.9 µM
NCI-H522 [1]; read-out: pGI50 (converted)
  GI50: 2.45 µM
NCI-H522 [1]; [16]
  CC50: 29.5 µM
NCI-H522 [1]; read-out: pTGI (converted)
  TGI: 6.92 µM
HOP-92 [2]; read-out: GI50
  GI50: 1.92 µM
HOP-92 [2]; [15]
  CC50: 36.6 µM
HOP-92 [2]; read-out: TGI
  TGI: 6.67 µM
HOP-92 [2]; read-out: pGI50 (converted)
  GI50: 1.91 µM
HOP-92 [2]; [16]
  CC50: 36.3 µM
HOP-92 [2]; read-out: pTGI (converted)
  TGI: 6.61 µM
UACC-257
  growth at 0.01 µM: 93%
SK-MEL-28
  growth at 0.01 µM: 99%
SF-539 [3]
  growth at 0.01 µM: 93%
KM12
  growth at 0.01 µM: 101%
HCT-116
  growth at 0.01 µM: 100%
NCI-H522 [4]
  growth at 0.01 µM: 89%
UO-31 [5]; read-out: GI50
  GI50: 3.39 µM
UO-31 [5]; [15]
  CC50: 45.9 µM
UO-31 [5]; read-out: TGI
  TGI: 13.6 µM
UO-31 [5]; read-out: pGI50 (converted)
  GI50: 3.39 µM
UO-31 [5]; [16]
  CC50: 45.7 µM
UO-31 [5]; read-out: pTGI (converted)
  TGI: 13.5 µM
TK-10; read-out: GI50
  GI50: 3.71 µM
TK-10; [15]
  CC50: 42.4 µM
TK-10; read-out: TGI
  TGI: 12.8 µM
TK-10; read-out: pGI50 (converted)
  GI50: 3.72 µM
TK-10; [16]
  CC50: 42.7 µM
TK-10; read-out: pTGI (converted)
  TGI: 12.9 µM
A498; read-out: GI50
  GI50: 2.55 µM
A498; [15]
  CC50: 35.2 µM
A498; read-out: TGI
  TGI: 11.6 µM
A498; read-out: pGI50 (converted)
  GI50: 2.57 µM
A498; [16]
  CC50: 35.5 µM
A498; read-out: pTGI (converted)
  TGI: 11.5 µM
OVCAR-5; read-out: GI50
  GI50: 2.97 µM
OVCAR-5; [15]
  CC50: 33.6 µM
OVCAR-5; read-out: TGI
  TGI: 10.5 µM
OVCAR-5; read-out: pGI50 (converted)
  GI50: 2.95 µM
OVCAR-5; [16]
  CC50: 33.9 µM
OVCAR-5; read-out: pTGI (converted)
  TGI: 10.5 µM
LOX IMVI; read-out: GI50
  GI50: 1.9 µM
LOX IMVI; [15]
  CC50: 6.68 µM
LOX IMVI; read-out: TGI
  TGI: 3.56 µM
LOX IMVI; read-out: pGI50 (converted)
  GI50: 1.91 µM
LOX IMVI; [16]
  CC50: 6.61 µM
LOX IMVI; read-out: pTGI (converted)
  TGI: 3.55 µM
U-251; read-out: GI50
  GI50: 2.58 µM
U-251; [15]
  CC50: 43.2 µM
U-251; read-out: TGI
  TGI: 10.1 µM
U-251; read-out: pGI50 (converted)
  GI50: 2.57 µM
U-251; [16]
  CC50: 43.7 µM
U-251; read-out: pTGI (converted)
  TGI: 10.2 µM
SF-295; read-out: GI50
  GI50: 2.4 µM
SF-295; [15]
  CC50: 49.8 µM
SF-295; read-out: TGI
  TGI: 7.56 µM
SF-295; read-out: pGI50 (converted)
  GI50: 2.4 µM
SF-295; [16]
  CC50: 50.1 µM
SF-295; read-out: pTGI (converted)
  TGI: 7.59 µM
MDA-MB-231
  growth at 100 µM: -93%
MCF7
  growth at 100 µM: -68%
DU-145
  growth at 100 µM: -92%
ACHN
  growth at 100 µM: -93%
OVCAR-3 [6]
  growth at 100 µM: -90%
UACC-62
  growth at 100 µM: -96%
M14
  growth at 100 µM: -77%
NCI-H460 [7]
  growth at 100 µM: -70%
MDA-MB-468 [8]
  growth at 1 µM: 92%
PC-3
  growth at 1 µM: 80%
SF-539 [9]
  growth at 1 µM: 90%
A549
  growth at 1 µM: 88%
UO-31 [10]
  growth at 0.1 µM: 94%
786-0
  growth at 0.1 µM: 100%
OVCAR-3 [11]
  growth at 0.1 µM: 104%
SK-MEL-2
  growth at 0.1 µM: 91%
HT-29
  growth at 0.1 µM: 100%
NCI-H460 [12]
  growth at 0.1 µM: 101%
HOP-92 [13]
  growth at 0.1 µM: 90%
MDA-MB-468 [14]
  growth at 0.01 µM: 95%
BT-549
  growth at 0.01 µM: 101%
CAKI-1
  growth at 0.01 µM: 94%
